These results are taken from ChEMBL document CHEMBL3351290, “Structural studies provide clues for analog design of specific inhibitors of Cryptosporidium hominis thymidylate synthase-dihydrofolate reductase” (Bioorg Med Chem Lett, 2014).

The EC50 is the midpoint of the concentration-response curve. By IC50 is commonly meant the concentration that inhibits the measured activity by half. Low values mean greater potency, high ones weaker potency.

The subject of data set [1] is Cryptosporidium hominis. The data set can be described thus: Antiparasitic activity against compound pre-treated Cryptosporidium hominis Iowa sporozoites infected in human HCT8 cells assessed as reduction in parasite infection. It is filed as functional, organism-based. The following applies: HCT-8.
The next data set addresses T1, Dihydrofolate reductase (Homo sapiens, UniProt P00374).
T1 sequence (P00374 whole entry): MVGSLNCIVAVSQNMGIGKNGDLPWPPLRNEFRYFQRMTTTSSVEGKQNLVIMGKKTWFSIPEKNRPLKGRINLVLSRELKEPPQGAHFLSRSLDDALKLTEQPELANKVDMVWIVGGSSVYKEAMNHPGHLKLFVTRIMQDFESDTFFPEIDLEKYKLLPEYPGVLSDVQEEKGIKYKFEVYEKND
As to the kind of experiment: Inhibition of human DHFR.

The subject of data set [2] is Cryptosporidium hominis. As to the kind of experiment: Antiparasitic activity against Cryptosporidium hominis Iowa intracellular forms infected in human HCT8 cells assessed as reduction in parasite infection dosed 2 hrs after parasite infection. It is filed as functional, organism-based. The following applies: HCT-8, 2 h.
For a further data set, the target named is Thymidylate synthase (Homo sapiens, UniProt P04818). The data set can be described thus: Inhibition of human thymidylate synthase.
Sequence of Thymidylate synthase (P04818 whole entry): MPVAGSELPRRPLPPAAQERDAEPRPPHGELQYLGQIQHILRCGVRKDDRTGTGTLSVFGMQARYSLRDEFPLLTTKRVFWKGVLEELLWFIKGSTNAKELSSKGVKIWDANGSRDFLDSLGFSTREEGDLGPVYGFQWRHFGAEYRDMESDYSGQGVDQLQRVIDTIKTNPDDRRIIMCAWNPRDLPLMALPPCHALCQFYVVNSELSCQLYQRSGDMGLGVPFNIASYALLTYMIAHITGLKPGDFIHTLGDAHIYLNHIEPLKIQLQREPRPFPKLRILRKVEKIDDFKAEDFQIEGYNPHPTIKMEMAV
The nature of data set [3]: Toxicity in Cryptosporidium hominis Iowa sporozoites infected human HCT8 cells assessed as effect on cell viability by microscopy. It is filed as cell-based. The following applies: hct-8.
Data set [4] is described as follows: Toxicity in Cryptosporidium hominis Iowa sporozoites infected human HCT8 cells assessed as effect on RNA levels. The following applies: hct-8. It is filed as cell-based.
Data set [5] in a line: Toxicity in Cryptosporidium hominis Iowa sporozoites infected human HCT8 cells assessed as effect on cell morphology by microscopy. It is filed as cell-based. The following applies: hct-8.

Consider `Nc1nc2[nH]cc(Cc3ccc(C(=O)N[C@@H](CCC(=O)O)C(=O)O)cc3)c2c(=O)[nH]1`, for which the EC50 in the data set on Cryptosporidium hominis [1] and in the data set with Cryptosporidium hominis [2] was 1000 nM in each case. In addition, the half-maximal inhibitory concentration (IC50) at Dihydrofolate reductase is 640 nM; against Thymidylate synthase it was 1800 nM. Moreover, the Activity result in data set [3], in data set [4] and in data set [5] was “Non-toxic” each time.
